Earlier results as cited in publication PMC4895178 (Scientific Reports, 2016).

Conditions: in plasma
Excerpt: The pioneering work of Vale et al.[8] established that residues 7 to 10 form the ph ...

**Q.** For `C[C@H](N)C(=O)NCC(=O)N[C@H]1CSSC[C@@H](C(=O)O)NC(=O)[C@H](CO)NC(=O)[C@H]([C@@H](C)O)NC(=O)[C@H](Cc2ccccc2)NC(=O)[C@H]([C@@H](C)O)NC(=O)[C@H](CCCCN)NC(=O)[C@H](Cc2c[nH]c3ccccc23)NC(=O)[C@H](Cc2ccccc2)NC(=O)[C@H](Cc2ccccc2)NC(=O)[C@H](CC(N)=O)NC(=O)[C@H](CCCCN)NC1=O` [Somatostatin (SRIF), Somatostatin], which half-life is on record?
**A.** 2 to 3 min
